# Legend:
# [1] = molecular target: T1, glutathione S-transferase (GST)-fused full-length human Syk protein (Homo sapiens, UniProt P43405); assay: Syk enzyme assay; type: biochemical; conditions: Syk enzyme assay, Test Example 1; read-out: IC50 of Syk-inhibitory activity
# T1 construct: (GST)-fused full-length human Syk protein; GST (glutathione S-transferase); purchased Carna Biosciences
# In short: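 GST-tagged full-length human Syk (baculovirus) preincubated with compound 15 min at room temperature (pH 7.0, 10 mM MgCl2), then reacted 40 min with 0.4 μM biotinylated peptide substrate and 27 μM ATP (final). Phosphorylation read by HTRF (615/665 nm) after EDTA stop; IC50 reported.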
# [2] = test system: THP-1 cells; assay: TNFα generation assay; type: cell-based, human; conditions: Homo sapiens, THP-1, THP-1 cells; Table 22; read-out: IC50 in TNFα generation assay
# In short: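 Secreted TNFα in supernatant quantified by ELISA or AlphaLISA after 7 h culture on human IgG-coated wells (10 μg/ml coating). Cells were IFN-γ-differentiated THP-1 (10 ng/ml, 2 days), exposed to compound for 30 min at room temperature before plating.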
Compound,IC50 [1] [nM],IC50 [2] [nM]
"CCOc1ncc(Nc2nc(N[C@@H]3CCCC[C@@H]3N)c(F)cc2C(N)=O)cc1-n1nccn1 [Example 006-495, 6-(((1R,2S)-2-aminocyclohexyl)amino)-2-((6-ethoxy-5-(2H-1,2,3-triazol-2-yl)pyridin-3-yl)amino)-5-fluoronicotinamide]",< 10,130 to 200
"CCOc1ncc(Nc2nc(N[C@@H]3CCCC[C@@H]3N)c(F)cc2C(N)=O)cc1-n1ccnn1 [Example 006-496, 6-(((1R,2S)-2-aminocyclohexyl)amino)-2-((6-ethoxy-5-(1H-1,2,3-triazol-1-yl)pyridin-3-yl)amino)-5-fluoronicotinamide]",< 10,65 to 130
"CCOc1ncc(Nc2nc(N[C@@H]3CCCC[C@@H]3N)c(F)cc2C(N)=O)cc1C [Example 006-497, 6-(((1R,2S)-2-aminocyclohexyl)amino)-2-((6-ethoxy-5-methylpyridin-3-yl)amino)-5-fluoronicotinamide]",< 10,65 to 130
"COCCOc1ncc(Nc2nc(N[C@@H]3CCCC[C@@H]3N)c(F)cc2C(N)=O)cc1C [Example 006-498, 6-(((1R,2S)-2-aminocyclohexyl)amino)-5-fluoro-2-((6-(2-methoxyethoxy)-5-methylpyridin-3-yl)amino)nicotinamide]",< 10,65 to 130
"Cc1cc(Nc2nc(N[C@@H]3CCCC[C@@H]3N)c(F)cc2C(N)=O)cnc1-n1cccn1 [Example 006-499, 6-(((1R,2S)-2-aminocyclohexyl)amino)-5-fluoro-2-((5-methyl-6-(1H-pyrazol-1-yl)pyridin-3-yl)amino)nicotinamide]",10 to 50,130 to 200
"Cc1cc(Nc2nc(N[C@@H]3CCCC[C@@H]3N)c(F)cc2C(N)=O)cnc1-n1nccn1 [Example 006-500, 6-(((1R,2S)-2-aminocyclohexyl)amino)-5-fluoro-2-((5-methyl-6-(2H-1,2,3-triazol-2-yl)pyridin-3-yl)amino)nicotinamide]",10 to 50,65 to 130
"Cc1cc(Nc2nc(N[C@@H]3CCCC[C@@H]3N)c(F)cc2C(N)=O)cnc1-n1ccnn1 [Example 006-501, 6-(((1R,2S)-2-aminocyclohexyl)amino)-5-fluoro-2-((5-methyl-6-(1H-1,2,3-triazol-1-yl)pyridin-3-yl)amino)nicotinamide]",10 to 50,130 to 200
"CCc1ncc(Nc2nc(N[C@@H]3CCCC[C@@H]3N)c(F)cc2C(N)=O)cc1C [Example 006-502, 6-(((1R,2S)-2-aminocyclohexyl)amino)-2-((6-ethyl-5-methylpyridin-3-yl)amino)-5-fluoronicotinamide]",< 10,65 to 130
"Cc1cc(Nc2nc(N[C@@H]3CCCC[C@@H]3N)c(F)cc2C(N)=O)cnc1C1CC1 [Example 006-503, 6-(((1R,2S)-2-aminocyclohexyl)amino)-2-((6-cyclopropyl-5-methylpyridin-3-yl)amino)-5-fluoronicotinamide]",< 10,65 to 130
"CCc1nn(C)c2ccc(Nc3nc(N[C@H](CC4CC4)[C@H](C)N)c(F)cc3C(N)=O)cc12 [Example 006-505, 6-(((2R,3S)-3-amino-1-cyclopropylbutan-2-yl)amino)-2-((3-ethyl-1-methyl-1H-indazol-5-yl)amino)-5-fluoronicotinamide]",< 10,130 to 200
"CCc1nn(CC)c2ccc(Nc3nc(N[C@H](CC4CC4)[C@H](C)N)c(F)cc3C(N)=O)cc12 [Example 006-506, 6-(((2R,3S)-3-amino-1-cyclopropylbutan-2-yl)amino)-2-((1,3-diethyl-1H-indazol-5-yl)amino)-5-fluoronicotinamide]",< 10,130 to 200
"CC(C)c1nn(C)c2ccc(Nc3nc(N[C@H](CC4CC4)[C@H](C)N)c(F)cc3C(N)=O)cc12 [Example 006-507, 6-(((2R,3S)-3-amino-1-cyclopropylbutan-2-yl)amino)-5-fluoro-2-((3-isopropyl-1-methyl-1H-indazol-5-yl)amino)nicotinamide]",< 10,130 to 200
"CCn1ncc2c(Nc3nc(N[C@H](CC4CC4)[C@H](C)N)c(F)cc3C(N)=O)cccc21 [Example 006-508, 6-(((2R,3S)-3-amino-1-cyclopropylbutan-2-yl)amino)-2-((1-ethyl-1H-indazol-4-yl)amino)-5-fluoronicotinamide]",< 10,65 to 130
"CCn1nc(F)c2cc(Nc3nc(N[C@H](CC4CC4)[C@H](C)N)c(F)cc3C(N)=O)ccc21 [Example 006-509, 6-(((2R,3S)-3-amino-1-cyclopropylbutan-2-yl)amino)-2-((1-ethyl-3-fluoro-1H-indazol-5-yl)amino)-5-fluoronicotinamide]",< 10,65 to 130
"C[C@H](N)[C@@H](CC1CC1)Nc1nc(Nc2ccc3c(c2)c(F)nn3CC(F)F)c(C(N)=O)cc1F [Example 006-510, 6-(((2R,3S)-3-amino-1-cyclopropylbutan-2-yl)amino)-2-((1-(2,2-difluoroethyl)-3-fluoro-1H-indazol-5-yl)amino)-5-fluoronicotinamide]",< 10,65 to 130
"CC(C)C[C@@H](Nc1nc(Nc2ccc3c(c2)c(F)nn3C)c(C(N)=O)cc1F)[C@H](C)N [Example 006-511, 6-(((2S,3R)-2-amino-5-methylhexan-3-yl)amino)-5-fluoro-2-((3-fluoro-1-methyl-1H-indazol-5-yl)amino)nicotinamide]",< 10,< 65
"CCn1nc(F)c2cc(Nc3nc(N[C@H](CC(C)C)[C@H](C)N)c(F)cc3C(N)=O)ccc21 [Example 006-512, 6-(((2S,3R)-2-amino-5-methylhexan-3-yl)amino)-2-((1-ethyl-3-fluoro-1H-indazol-5-yl)amino)-5-fluoronicotinamide]",< 10,65 to 130
"CC(C)C[C@@H](Nc1nc(Nc2ccc3c(c2)c(F)nn3CC(F)F)c(C(N)=O)cc1F)[C@H](C)N [Example 006-513, 6-(((2S,3R)-2-amino-5-methylhexan-3-yl)amino)-2-((1-(2,2-difluoroethyl)-3-fluoro-1H-indazol-5-yl)amino)-5-fluoronicotinamide]",< 10,65 to 130

# The remaining lines, values ahead:
IC50 [1] [nM],IC50 [2] [nM],Compound
< 10,130 to 200,"C[C@H](N)[C@H](Nc1nc(Nc2ccc(N3CCOCC3)nc2)c(C(N)=O)cc1F)C1CC1 [Example 006-515, 6-(((1R,2S)-2-amino-1-cyclopropylpropyl)amino)-5-fluoro-2-((6-morpholinopyridin-3-yl)amino)nicotinamide]"
< 10,< 65,"CCn1ncc2cc(Nc3nc(N[C@H](c4ccccc4)[C@H](C)N)c(F)cc3C(N)=O)ccc21 [Example 006-516, 6-(((1R,2S)-2-amino-1-phenylpropyl)amino)-2-((1-ethyl-1H-indazol-5-yl)amino)-5-fluoronicotinamide]"
< 10,65 to 130,"COCCOc1ncc(Nc2nc(N[C@@H]3CCCC[C@@H]3N)c(F)cc2C(N)=O)cc1-n1nccn1 [Example 006-517, 6-(((1R,2S)-2-aminocyclohexyl)amino)-5-fluoro-2-((6-(2-methoxyethoxy)-5-(2H-1,2,3-triazol-2-yl)pyridin-3-yl)amino)nicotinamide]"
< 10,65 to 130,"CCn1ncc2c(Nc3nc(N[C@H](CC(C)C)[C@H](C)N)c(F)cc3C(N)=O)cccc21 [Example 006-519, 6-(((2S,3R)-2-amino-5-methylhexan-3-yl)amino)-2-((1-ethyl-1H-indazol-4-yl)amino)-5-fluoronicotinamide]"
< 10,< 65,"Cc1nn(C)c2ccc(Nc3nc(N[C@H](CC(C)C)[C@H](C)N)c(F)cc3C(N)=O)cc12 [Example 006-520, 6-(((2S,3R)-2-amino-5-methylhexan-3-yl)amino)-2-((1,3-dimethyl-1H-indazol-5-yl)amino)-5-fluoronicotinamide]"
< 10,65 to 130,"CCn1nc(C)c2cc(Nc3nc(N[C@H](CC(C)C)[C@H](C)N)c(F)cc3C(N)=O)ccc21 [Example 006-521, 6-(((2S,3R)-2-amino-5-methylhexan-3-yl)amino)-2-((1-ethyl-3-methyl-1H-indazol-5-yl)amino)-5-fluoronicotinamide]"
< 10,< 65,"Cc1nn(CC(F)F)c2ccc(Nc3nc(N[C@H](CC(C)C)[C@H](C)N)c(F)cc3C(N)=O)cc12 [Example 006-522, 6-(((2S,3R)-2-amino-5-methylhexan-3-yl)amino)-2-((1-(2,2-difluoroethyl)-3-methyl-1H-indazol-5-yl)amino)-5-fluoronicotinamide]"
< 10,< 65,"CC[C@@H](Nc1nc(Nc2cccc3c2cnn3CC)c(C(N)=O)cc1F)[C@H](C)N [Example 006-523, 6-(((2S,3R)-2-aminopentan-3-yl)amino)-2-((1-ethyl-1H-indazol-4-yl)amino)-5-fluoronicotinamide]"
< 10,< 65,"CC[C@@H](Nc1nc(Nc2ccc3c(c2)c(C)nn3C)c(C(N)=O)cc1F)[C@H](C)N [Example 006-524, 6-(((2S,3R)-2-aminopentan-3-yl)amino)-2-((1,3-dimethyl-1H-indazol-5-yl)amino)-5-fluoronicotinamide]"
< 10,65 to 130,"CC[C@@H](Nc1nc(Nc2ccc3c(c2)c(C)nn3CC)c(C(N)=O)cc1F)[C@H](C)N [Example 006-525, 6-(((2S,3R)-2-aminopentan-3-yl)amino)-2-((1-ethyl-3-methyl-1H-indazol-5-yl)amino)-5-fluoronicotinamide]"
